In data set [1] the test system is Hek293t. Briefly: MTS assay, normal cell line Hek293t. The following applies: 24 h treatment. The data set is classed as cell-based. The method, then: (§1) Hepatocellular carcinoma (Hep3B and HepG2), cervical adenocarcinoma (HeLa), breast carcinoma (MCF-7), melanoma (B16F1), colorectal adenocarcinoma (Caco-2), and colon adenocarcinoma (Colo205), as well as human hepatic stellate (LX-2) in addition to the normal cell line (Hek293T), were used as cancer and normal cell lines and were cultured in RPMI-1640 media and supplemented with 10.0% fetal bovine serum, 1.0% l-glutamine and 1.0% Penicillin/Streptomycin antibiotics. After that, the cells matured in a moist atmosphere with 5.0% CO2 at 37 °C. In a 96-well plate, the cells were seeded at 2.5 × 10^4 cells/well. After 72 h, the cells were confluent, the media was changed, and then the cells were incubated with various concentrations (300, 100, 50, 10, and 1 µM), as well as lower concentrations (500, 100, and 50 nM) were used, especially for compound 2e against the B16-F1 cancer cell line to calculate accurate IC50 values for the evaluated compounds (2a–2f) for 24 h. The viability of cells was assessed by the Cell Tilter 96® Aqueous One Solution Cell Proliferation (MTS) Assay according to the manufacturer’s procedures (Promega Corporation, Madison, WI). However, at the end of the treatment, about 20 μl/100 μl of MTS solution/media was added to each well and for 2 h, they were incubated at 37 °C. Finally, the absorbance was measured at 490 nm.
(In general: Formazan colour is commonly taken as a measure of viable cells.)

Data set [2] relates to HepG2. Briefly: MTS assay, HepG2 hepatocellular carcinoma cells. It is filed as cell-based. The following applies: for viability at 50 µM: read-out: Cell viability percentage, HepG2; for IC50: MTS, 24 h treatment. The method, then: as §1
In data set [3] the test system is B16F1, Colo205, HepG2, and HeLa cancer cell lines. Briefly: MTS assay, IC50 range over a panel of cancer cell lines. It is filed as cell-based. The method, then:
as §1

Data set [4] has as its system Hep3B. Briefly: MTS assay, Hep3B hepatocellular carcinoma cells. The following applies: 24 h treatment. The data set is classed as cell-based. On the procedure:
as §1

The subject of data set [5] is B16F1. As to the kind of experiment: MTS assay, B16F1 melanoma cells. The data set is classed as cell-based. The following applies: for IC50: MTS, 24 h treatment. On the procedure: as §1
In data set [6] the test system is CaCo-2. As to the kind of experiment: MTS assay, CaCo-2 colorectal adenocarcinoma cells. It is filed as cell-based. On the procedure:
as §1

Data set [7] has as its system Colo205. Briefly: MTS assay, Colo205 colon adenocarcinoma cells. It is filed as cell-based. The following applies: for IC50: MTS, 24 h treatment; for viability at 50 µM: COLO 205, read-out: Cell viability percentage, Colo205. The method, then: as §1
Data set [8] relates to MCF-7. Briefly: MTS assay, MCF-7 breast carcinoma cells. The data set is classed as cell-based, Human. On the procedure: as §1
Data set [9] has as its system HeLa. As to the kind of experiment: MTS assay, HeLa cervical adenocarcinoma cells. Conditions: 24 h treatment. It is filed as cell-based, Human. On the procedure:
as §1

The test system of data set [10] is B16F1. Briefly: MTS assay, B16F1 melanoma cells. It is filed as cell-based. The following applies: compound versus its nano-emulgel at 1, 0.5, 0.1, 0.05, and 0.01 µM.
For data set [11], the system named is human hepatic stellate cell (HSC) line LX-2. As to the kind of experiment: Anti-fibrotic activity, MTS viability of LX-2 cells. The data set is classed as cell-based. The following applies: 1 µM. On the procedure: Hepatocellular carcinoma (Hep3B and HepG2), cervical adenocarcinoma (HeLa), breast carcinoma (MCF-7), melanoma (B16F1), colorectal adenocarcinoma (Caco-2), and colon adenocarcinoma (Colo205), as well as human hepatic stellate (LX-2) in addition to the normal cell line (Hek293T), were used as cancer and normal cell lines and were cultured in RPMI-1640 media and supplemented with 10.0% fetal bovine serum, 1.0% l-glutamine and 1.0% Penicillin/Streptomycin antibiotics. After that, the cells matured in a moist atmosphere with 5.0% CO2 at 37 °C. In a 96-well plate, the cells were seeded at 2.5 × 10^4 cells/well. […] The viability of cells was assessed by the Cell Tilter 96® Aqueous One Solution Cell Proliferation (MTS) Assay according to the manufacturer’s procedures (Promega Corporation, Madison, WI). […] Finally, the absorbance was measured at 490 nm.
To explore the anti-fibrotic effects of these compounds on human hepatic stellate cell (HSC) line LX-2, the viability of LX-2 cells following various compounds' treatment was determined by the MTS assay.

Setting [12] is: Homo sapiens, Caco-2, 24 h treatment.
Setting [13] is: Homo sapiens, MCF7, 24 h treatment.

Each structure is given as a SMILES string. Several values for one entry are separate records, joined by “and”; a condition that tells them apart may be missing. Identical values can stand only once. Like-named read-outs stand apart in the source and are kept apart here. Some results are limits rather than exact numbers.

The values that follow come from PMC9229817, “Synthesis of novel isoxazole–carboxamide derivatives as promising agents for melanoma and targeted nano-emulgel conjugate for improved cellular permeability” (BMC Chemistry, 2022).

For orientation: IC50 means the concentration that gives 50% inhibition. For orientation: viability means a read-out of living cells in per cent, often relative to untreated cells. By melting point is commonly meant the temperature of the solid-liquid transition.

Take `COc1cc(NC(=O)c2c(-c3ccccc3)noc2C)c(OC)cc1Cl` [2a, N-(4–Chloro-2,5-dimethoxyphenyl)-5-methyl-3-phenylisoxazole-4–Carboxamide]: the IC50 was 2.54 ± 1.4 µM in [1] (Homo sapiens, HEK-293T); 7.55 ± 0.79 µM in data set [2] (Homo sapiens, HepG2); 7.54 to 129 µM in [3] (range over five cancer cell lines, read-out: IC50 range on five cancer cell lines); 7.55 to 40.9 µM in data set [3] (range over four cancer cell lines, read-out: IC50 range against B16F1, Colo205, HepG2, and HeLa); above 200 µM in [4] (Homo sapiens, Hep3B); 29.7 ± 2.12 µM in data set [5] (Mus musculus, B16-F1). Further, the half-maximal inhibitory concentration (IC50) in [6] (setting [12]) was 129 ± 2.47 µM; in [7] (Homo sapiens, COLO 205, 24 h), 9.18 µM; in data set [7] it was 9.18 ± 0.88 µM; in [8] (setting [13]) it was above 200 µM; in data set [9] (Homo sapiens, HeLa) it was 40.8 ± 1.25 µM. The viability at 50 µM in data set [2] (Homo sapiens, HepG2) worked out at 29.2%; in data set [7] (Homo sapiens) it was 39.4%.
As for `Cc1onc(-c2ccccc2)c1C(=O)Nc1cccc(C(F)(F)F)c1` [2b, 5-Methyl-3-phenyl-N-(3-(trifluoromethyl)phenyl) isoxazole-4–Carboxamide], the IC50 in data set [1] is 148 ± 2.74 µM; in data set [2], 53.6 ± 2.04 µM; in data set [4], above 200 µM; in [5], 42.9 ± 1.55 µM; in data set [6] (24 h treatment), above 200 µM; in data set [7] it was above 200 µM. In addition, the IC50 in data set [8] (24 h treatment) and in data set [9] was above 200 µM in each case.
In turn, `COc1ccccc1Oc1ccc(NC(=O)c2c(-c3ccccc3)noc2C)cc1` [2c, N-(4-(2-Methoxyphenoxy)phenyl)-5-methyl-3-phenylisoxazole-4–Carboxamide] showed a melting point of 179 to 180 °C. In data set [1] (Homo sapiens, HEK-293T), 20.2 ± 1.32 µM corresponded to half-maximal inhibition (IC50). Moreover, inhibition in [2] (Homo sapiens, HepG2) was half-maximal at 120 ± 2.19 µM (IC50). The half-maximal inhibitory concentration (IC50) in data set [4] (Homo sapiens, Hep3B) was above 200 µM. The same compound returned an IC50 in data set [5] (Mus musculus, B16-F1) of 21.1 ± 0.78 µM. In [6] (setting [12]), this compound came in with a half-inhibitory concentration (IC50) above 200 µM. Moreover, in [7] (Homo sapiens, COLO 205, 24 h), the IC50 stood at 183 ± 2.05 µM. Besides, in data set [8] (setting [13]), the IC50 was above 200 µM. Moreover, in data set [9] (Homo sapiens, HeLa), the IC50 was above 200 µM.
`CSc1ccc(NC(=O)c2c(-c3ccccc3)noc2C)cc1` [2d, 5-Methyl-N-(4-(methylthio)phenyl)-3-phenylisoxazole-4–Carboxamide] returned a melting point of 144 to 146 °C. This compound came in with an IC50 in data set [1] (Homo sapiens, HEK-293T) above 200 µM. In data set [2] (Homo sapiens, HepG2), this compound gave a half-inhibitory concentration (IC50) of 37.9 ± 2.07 µM. Moreover, the half-inhibitory concentration (IC50) in data set [4] (Homo sapiens, Hep3B) was above 200 µM. Moreover, the IC50 in [5] (Mus musculus, B16-F1) is 39.8 ± 1.45 µM. Moreover, the IC50 in data set [6] (setting [12]) is above 200 µM. The compound further gave an IC50 in data set [7] (Homo sapiens, COLO 205, 24 h) of 216.4 ± 1.58 µM. Further, the IC50 in [8] (setting [13]) is above 200 µM. Also, the IC50 in data set [9] (Homo sapiens, HeLa) was above 200 µM.
Turning to `Cc1onc(-c2ccccc2)c1C(=O)Nc1ccc(OC(F)(F)F)cc1` [2e, 5-Methyl-3-phenyl-N-(4-(trifluoromethoxy)phenyl) isoxazole-4–Carboxamide], the IC50 in data set [1] was 190 ± 2.67 µM; in [2], above 200 µM; in [10], 0.079 µM; in [4] it was above 200 µM; in [5], 0.079 µM; in data set [6] (24 h treatment) it was above 200 µM. Further, the IC50 in [7], in [8] (24 h treatment) and in data set [9] was above 200 µM in each case. For the same compound, the “Cell viability percentage, B16F1” value in data set [5] (50 µM) worked out at 18.42%.
Take `Cc1onc(-c2ccccc2)c1C(=O)Nc1ccc(-c2cccs2)cc1` [2f, 5-Methyl-3-phenyl-N-(4-(thiophen-2-yl)phenyl) isoxazole-4–Carboxamide]: the IC50 is 7.91 ± 0.61 µM in [1]; 38.4 ± 1.07 µM in [2]; 54.6 ± 2.11 µM in [4]; 12.7 ± 1.01 µM in data set [5]; above 200 µM in [6] (24 h treatment); 75.4 ± 2.41 µM in data set [7]. The IC50 in data set [8] (24 h treatment) and in [9] was above 200 µM in each case. In data set [11], the “Cellular viability of LX-2” value worked out at 66.55%. In data set [5] (50 µM), the “Cell viability percentage, B16F1” value amounted to 34.03%.
On to `O=c1[nH]cc(F)c(=O)[nH]1` [5-FU], for which the “Cellular viability of LX-2” value in [11] is 95% and 94.64%.
On to `COc1cccc2c1C(=O)c1c(O)c3c(c(O)c1C2=O)C[C@@](O)(C(=O)CO)C[C@@H]3O[C@H]1C[C@H](N)[C@H](O)[C@H](C)O1` [Dox, Doxorubicin, reference compound], for which the viability at 50 µM in [2] (Homo sapiens, HepG2) was 9.46%; in data set [5] (Mus musculus, B16-F1, 50 µM, read-out: Cell viability percentage, B16F1), 21.8%; in [7] (Homo sapiens), 9.89%. Also, 0.056 µM corresponded to half-maximal inhibition in [5] (Mus musculus, B16-F1) (IC50).
